In patent publication US20240025862A1, “SUBSTITUTED N-PHENYLURACILS AND SALTS THEREOF, AND USE THEREOF AS HERBICIDAL ACTIVE SUBSTANCES” (Bayer Aktiengesellschaft, priority 2020, published 2024):

Key:
Format in all cases: in vivo
[1] = tested on: Abutilon theophrasti (ABUTH); assay: Post-emergence herbicidal action, greenhouse pot test; settings: rated visually after about 3 weeks vs untreated controls, 100% = plants have died
Protocol: (§1) Seeds of monocotyledonous and dicotyledonous weeds and crop plants were placed in sandy loam in plastic or wood-fiber pots, covered with soil and cultivated in a greenhouse under controlled growth conditions. 2 to 3 weeks after sowing, the test plants were treated at the one-leaf stage. The compounds of the invention, formulated in the form of wettable powders (WP) or as emulsion concentrates (EC), were then sprayed onto the green parts of the plants as aqueous suspension or emulsion with addition of 0.5% additive at a water application rate of 600 l/ha (converted). After the test plants had been kept in the greenhouse under optimum growth conditions for about 3 weeks, the activity of the preparations was rated visually in comparison to untreated controls. For example, 100% activity=the plants have died, 0% activity=like control plants.
(§2) Tables A1 to A14 below show the effects of selected compounds of the general formula (I) according to Tables I.1 to I.33 on various harmful plants and at an application rate corresponding to 20 g/ha and less, which were obtained by the experimental method specified above. The appendices “a”, “b” and “c” give differentiation by different dosage with otherwise the same harmful plants tested.

[2] = tested on: Amaranthus retroflexus (AMARE); assay: as above; settings: rated visually after about 3 weeks vs untreated controls, 100% = plants have died
Protocol: as §1, §2

[3] = tested on: Pharbitis purpurea (PHBPU); assay: as above
Protocol: as §1, §2

[4] = tested on: Polygonum convolvulus (POLCO); assay: as above
Protocol: as §1, §2

Veronica persica (VERPE) = assay: as above
Protocol: as §1, §2

Viola tricolor (VIOTR) = assay: as above
Protocol: as §1, §2

[5] = tested on: Alopecurus myosuroides (ALOMY); assay: Post-emergence herbicidal action, greenhouse pot test (also comparative test C); settings: rated visually after about 3 weeks vs untreated controls, 100% = plants have died
Protocol: as §1, §2
(§3) C. Comparative Herbicidal Action and Crop Plant Compatibility of Two Inventive Compounds (I.7-1 and I.7-115) with a Compound of Similar Structure Known from the Literature (WO2002/098227, a-17 and EP1106607, 3-14) in Post-Emergence Treatment.
(§4) Tables C1-C4 below show the effects of two inventive compounds (I.7-1 and I.7-115) together with a compound of similar structure known from the literature (a-17 in WO2002/098227, and 3-14 in EP1106607) in different crop plants at an application rate corresponding to 5 g/ha or less, which have been obtained by the aforementioned experimental procedure.

[6] = tested on: Echinochloa crus-galli (ECHCG); assay: as above
Protocol: as §1, §2, §3, §4

[7] = tested on: Matricaria inodora (MATIN); assay: as above
Protocol: as §1, §2, §3, §4

Setaria viridis (SETVI) = assay: as above; settings: for Post-emergence action against SETVI: 20 g/ha
Protocol: as §1, §2, §3, §4

[8] = tested on: Triticum aestivum (TRZAS); assay: Post-emergence crop plant compatibility, greenhouse pot test; settings: vs untreated controls
Protocol: as §1
(§5) The observed effects on selected crop plants are reported here in comparison to the untreated controls (values in %). The appendices “a”, “b” and “c” give differentiation by different dosage with otherwise the same crop plants tested.

Zea mays (ZEAMX) = assay: as above; settings: vs untreated controls
Protocol: as §1, §5

Oryza sativa (ORYSA) = assay: Post-emergence crop plant compatibility, greenhouse pot test (also comparative test C); settings: for Post-emergence action against ORYSA (crop plant compatibility): vs untreated controls
Protocol: as §1, §5, §3

| Compound | Post-emergence action at 5 g/ha against ABUTH in % [1] [%] | Post-emergence action at 20 g/ha against ABUTH in % [1] [%] | Post-emergence action at 1.25 g/ha against AMARE in % [2] [%] | Post-emergence action at 5 g/ha against AMARE in % [2] [%] | Post-emergence action at 20 g/ha against AMARE in % [2] [%] | Post-emergence action against PHBPU in % ([3]; dosage 1.25 g/ha) [%] | Post-emergence action against PHBPU in % ([3]; dosage 5 g/ha) [%] | Post-emergence action against PHBPU in % ([3]; dosage 20 g/ha) [%] | Post-emergence action against POLCO in % ([4]; dosage 20 g/ha) [%] | Post-emergence action against VERPE (Veronica persica (VERPE); 5 g/ha) [%] | Post-emergence action against VERPE (Veronica persica (VERPE); 20 g/ha) [%] | Post-emergence action against VIOTR (Viola tricolor (VIOTR); 1.25 g/ha) [%] | Post-emergence action against VIOTR (Viola tricolor (VIOTR); 5 g/ha) [%] | Post-emergence action against VIOTR (Viola tricolor (VIOTR); 20 g/ha) [%] | Post-emergence action at 20 g/ha against ALOMY in % [5] [%] | Post-emergence action against ECHCG in % ([6]; dosage 20 g/ha) [%] | Post-emergence action against MATIN in % ([7]; dosage 5 g/ha) [%] | Post-emergence action against MATIN in % ([7]; dosage 20 g/ha) [%] | Post-emergence action against SETVI (Setaria viridis (SETVI)) [%] | Post-emergence action against SETVI in % (Setaria viridis (SETVI); dosage 5 g/ha) [%] | further results |
| --- | --- | --- | --- | --- | --- | --- | --- | --- | --- | --- | --- | --- | --- | --- | --- | --- | --- | --- | --- | --- | --- |
| Cn1c(C(F)(F)F)cc(=O)n(-c2cc(Oc3ccccc3OCC(=O)OCC[N+](=O)[O-])c([N+](=O)[O-])cc2F)c1=O [I.6-183] | 100 | 100 | 100 | 100 | 100 | 100 | 100 | 100 | 100 | 100 | 100 | 90 | 100 | 100 | 90 | 80 | 80 | 100 | 100 | 100 | Post-emergence action against TRZAS (crop plant compatibility) ([8]; 1.25 g/ha): 0%; Post-emergence action against TRZAS (crop plant compatibility) ([8]; 5 g/ha): 20%; Post-emergence action against ZEAMX (crop plant compatibility) (Zea mays (ZEAMX); 1.25 g/ha): 20%; Post-emergence action against ZEAMX (crop plant compatibility) (Zea mays (ZEAMX); 5 g/ha): 20%; Post-emergence action against ORYSA (crop plant compatibility) (Oryza sativa (ORYSA); 1.25 g/ha): 0%; Post-emergence action against ORYSA (crop plant compatibility) (Oryza sativa (ORYSA); 5 g/ha): 0%; Post-emergence action against ORYSA in % (Oryza sativa (ORYSA); 20 g/ha, crop plant compatibility): 0% |
| Cn1c(C(F)(F)F)cc(=O)n(-c2cc(Oc3ccccc3OCC(=O)OCCC[N+](=O)[O-])c(Cl)cc2F)c1=O [I.7-339] | 100 | 100 | 100 | 100 | 100 | 100 | 100 | 100 | 100 | 100 | 100 | 100 | 100 | 100 | 100 | 100 | 100 | 100 | 100 | 100 | Post-emergence action at 1.25 g/ha against ABUTH in % ([1]; 1.25 g/ha): 90%; Post-emergence action against POLCO in % ([4]; dosage 5 g/ha): 100%; Post-emergence action against VERPE (Veronica persica (VERPE); 1.25 g/ha): 80%; Post-emergence action at 5 g/ha against ALOMY in % ([5]; 5 g/ha): 100%; Post-emergence action against ECHCG in % ([6]; dosage 5 g/ha): 100%; Post-emergence action against SETVI in % (Setaria viridis (SETVI); dosage 1.25 g/ha): 100%; Post-emergence action against TRZAS (crop plant compatibility) ([8]; 1.25 g/ha): 0%; Post-emergence action against TRZAS (crop plant compatibility) ([8]; 5 g/ha): 20%; Post-emergence action against ZEAMX (crop plant compatibility) (Zea mays (ZEAMX); 1.25 g/ha): 20%; Post-emergence action against ORYSA (crop plant compatibility) (Oryza sativa (ORYSA); 1.25 g/ha): 0%; Post-emergence action against ORYSA (crop plant compatibility) (Oryza sativa (ORYSA); 5 g/ha): 10% |
